Test results published in PMC3228261 (Chemistry (Weinheim an der Bergstrasse, Germany), 2011).
Where two headings read alike, the source gives them in different places.

Assays:
[1] = test system: human primary foreskin fibroblast (HFF) cells; conditions: read-out: EC50 (HFF), viable cells after 72 h, triplicates
L-929 mouse fibroblasts = experiment: MTT test, growth inhibition of L-929 mouse fibroblasts; format: cell-based; conditions: read-out: IC50 (L929), 5 d incubation, MTT assay
[2] = test system: human primary foreskin fibroblast (HFF) cells; experiment: cells; conditions: 72 h, read-out: EC50 (HFF)
in vitro = conditions: human

Row | Structure (SMILES) | EC50 [1] | IC50 (L-929 mouse fibroblasts) | EC50 [2] | EC50 at 72 h (in vitro)
1 | CO[C@@H]1C(=O)O[C@H](C)[C@@H](C)C=C(C)C[C@H](C)C(=O)N[C@@H](C)C(=O)N(C)[C@H](Cc2c(Cl)[nH]c3ccccc23)C(=O)NC1c1ccc(O)cc1 (stereo partly drawn) [chon B_np (3), chondramide B] | 0.044 ± 0.005 µM |  |  | 
2 | CO[C@@H]1C(=O)O[C@H](C)[C@H](C)/C=C(\C)C[C@H](C)C(=O)N[C@@H](C)C(=O)N(C)[C@H](Cc2c[nH]c3ccccc23)C(=O)N[C@H]1c1ccc(O)cc1 [chon A_np (2a), chondramide A] | 0.118 ± 0.023 µM | 0.056 ± 0.013 µM |  | 
3 | C/C1=C\[C@H](C)C[C@H](C)OC(=O)C[C@H](c2ccc(O)cc2)NC(=O)[C@@H](Cc2c(Br)[nH]c3ccccc23)N(C)C(=O)[C@H](C)NC(=O)[C@@H](C)C1 [jasplakinolide_np (1), jasplakinolide] |  |  | 0.028 ± 0.004 µM | ~0.03 µM
4 | C/C1=C\[C@@H](C)[C@@H](C)OC(=O)C[C@H](c2ccc(O)cc2)NC(=O)[C@@H](Cc2c[nH]c3ccccc23)N(C)C(=O)[C@H](C)NC(=O)[C@@H](C)C1 [chon C_np (4), chondramide C] | 0.036 ± 0.007 µM |  |  | 
